This note sets out measurements from patent US10323037B2, “Aminopyridazinone compounds as protein kinase inhibitors” (Jiangsu Hengrui Medicine Co., Ltd., priority 2014, dated 2019).

For this test, the system named is TMD-8 cells. In words: Cell proliferation assay (CellTiter-Glo), TMD-8. Format: cell-based. The settings on record: Homo sapiens, TMD8, 120 h; 5-day treatment; read-out: TMD8 cells growth IC50. The method, then: Cell proliferation assay: TMD-8 and SU-DHL-1 cells were maintained at 37° C. in a humidified atmosphere with 5% CO2 in the recommended medium and serum concentrations. For cell proliferation assay, cells were seeded in 96-well pates at a density of 5,000 to 10,000 cells per well and cultured overnight at 37° C. in recommended medium supplemented with 5-10% FBS. On the next day, the test articles at various concentrations or vehicle control (0.5% DMSO) were added into cell culture. After 5-day treatment, the growth of cells was assayed by the CellTiter-Glo® Luminestceaent Cell Viability Assay (Promega). IC50 values were calculated using GraphPad Prism by plotting the logarithm of the concentration versus percent inhibition of cell growth as compared with the vehicle control.
For orientation: Cellular ATP, detected with luciferase, serves as a proxy for viable cell number.
Broadly, the IC50 is the concentration that gives 50% inhibition. As for `C=CC(=O)N1CCC[C@@H](n2cc(-c3ccc(Oc4ccccc4)cc3)c3c(N)n[nH]c(=O)c32)C1` [Example 1, (R)-1-(1-acryloylpiperidin-3-yl)-4-amino-3-(4-phenoxyphenyl)-1H-pyrrolo[2,3-d]pyridazin-7(6H)-one], the IC50 was at most 10 nM.

`C=CC(=O)N1CC[C@H](n2cc(-c3ccc(Oc4ccccc4)cc3)c3c(N)n[nH]c(=O)c32)C1` [Example 3, 4-amino-3-(4-phenoxyphenyl)-1-[(3S)-1-prop-2-enoylpyrrolidin-3-yl]-6H-pyrrolo[2,3-d]pyridazin-7-one]: the IC50 was 10 to 1000 nM.

As to `C=CC(=O)N1CC[C@@H](n2cc(-c3ccc(Oc4ccccc4)cc3)c3c(N)n[nH]c(=O)c32)C1` [Example 4, 4-amino-3-(4-phenoxyphenyl)-1-[(3R)-1-prop-2-enoylpyrrolidin-3-yl]-6H-pyrrolo[2,3-d]pyridazin-7-one], the concentration for half-maximal inhibition (IC50) lay in the range of 10 to 1000 nM.

In the case of `C=CC(=O)N1CC(n2cc(-c3ccc(Oc4ccccc4)cc3)c3c(N)n[nH]c(=O)c32)C1` [Example 5, 4-amino-3-(4-phenoxyphenyl)-1-(1-prop-2-enoylazetidin-3-yl)-6H-pyrrolo[2,3-d]pyridazin-7-one], the IC50 is 10 to 1000 nM.

On to `C=CC(=O)N1CCC[C@H]1Cn1cc(-c2ccc(Oc3ccccc3)cc2)c2c(N)n[nH]c(=O)c21` [Example 6, 4-amino-3-(4-phenoxyphenyl)-1-[[(2S)-1-prop-2-enoylpyrrolidin-2-yl]methyl]-6H-pyrrolo[2,3-d]pyridazin-7-one], for which the IC50 was at most 10 nM.

Take `C=CC(=O)N1CCC(Cn2cc(-c3ccc(Oc4ccccc4)cc3)c3c(N)n[nH]c(=O)c32)C1` (centres unmarked) [Example 8, 4-amino-3-(4-phenoxyphenyl)-1-[(1-prop-2-enoylpyrrolidin-3-yl)methyl]-6H-pyrrolo[2,3-d]pyridazin-7-one]: the 50% inhibitory concentration (IC50) lay within 10 to 1000 nM.

For `C=CC(=O)N1CCC(Cn2cc(-c3ccc(Oc4ccccc4)cc3)c3c(N)n[nH]c(=O)c32)CC1` [Example 10, 4-amino-3-(4-phenoxyphenyl)-1-[(1-prop-2-enoyl-4-piperidyl)methyl]-6H-pyrrolo[2,3-d]pyridazin-7-one], the IC50 was in the range of 10 to 1000 nM.

In the case of `C=CC(=O)N1CC(Cn2cc(-c3ccc(Oc4ccccc4)cc3)c3c(N)n[nH]c(=O)c32)C1` [Example 12, 4-amino-3-(4-phenoxyphenyl)-1-[(1-prop-2-enoylazetidin-3-yl)methyl]-6H-pyrrolo[2,3-d]pyridazin-7-one], the IC50 is at most 10 nM.

Take `C=CC(=O)N1CCC(F)C(n2cc(-c3ccc(Oc4ccccc4)cc3)c3c(N)n[nH]c(=O)c32)C1` (centres unmarked) [Example 13, 1-(1-acryloyl-4-fluoropiperidin-3-yl)-4-amino-3-(4-phenoxyphenyl)-1H-pyrrolo[2,3-d]pyridazin-7(6H)-one]: the half-inhibitory concentration (IC50) was at most 10 nM.

With `C=CC(=O)N1C[C@H](n2cc(-c3ccc(Oc4ccccc4)cc3)c3c(N)n[nH]c(=O)c32)CC(F)(F)C1` [Example 14, (R)-1-(1-acryloyl-5,5-difluoropiperidin-3-yl)-4-amino-3-(4-phenoxyphenyl)-1H-pyrrolo[2,3-d]pyridazin-7(6H)-one], the IC50 was at most 10 nM.

As for `C=CC(=O)NC1C2CCC1CC(n1cc(-c3ccc(Oc4ccccc4)cc3)c3c(N)n[nH]c(=O)c31)C2` (centres unmarked) [Example 15, N-(3-(4-amino-7-oxo-3-(4-phenoxyphenyl)-6,7-dihydro-1H-pyrrolo[2,3-d]pyridazin-1-yl)bicyclo[3.2.1]octan-8-yl)acrylamide], the IC50 was at most 10 nM.

For `CC(C)N(C)C/C=C/C(=O)N1CCC[C@@H](n2cc(-c3ccc(Oc4ccccc4)cc3)c3c(N)n[nH]c(=O)c32)C1` [Example 16, 4-amino-1-[(3R)-1-[(E)-4-[isopropyl(methyl)amino]but-2-enoyl]-3-piperidyl]-3-(4-phenoxyphenyl)-6H-pyrrolo[2,3-d]pyridazin-7-one], the IC50 is 10 to 1000 nM.

For the compound `CN(C/C=C/C(=O)N1CCC[C@@H](n2cc(-c3ccc(Oc4ccccc4)cc3)c3c(N)n[nH]c(=O)c32)C1)C(=O)OC(C)(C)C` [Example 17], the concentration for half-maximal inhibition (IC50) is 10 to 1000 nM.

On to `CNC/C=C/C(=O)N1CCC[C@@H](n2cc(-c3ccc(Oc4ccccc4)cc3)c3c(N)n[nH]c(=O)c32)C1` [Example 18, 4-amino-1-[(3R)-1-[(E)-4-(methylamino)but-2-enoyl]-3-piperidyl]-3-(4-phenoxyphenyl)-6H-pyrrolo[2,3-d]pyridazin-7-one], for which the IC50 was at most 10 nM.

For `CCC(=O)N1CCCC(n2cc(-c3ccc(Oc4ccccc4)cc3)c3c(N)n[nH]c(=O)c32)C1` (centres unmarked) [Example 19, 4-amino-3-(4-phenoxyphenyl)-1-(1-propionylpiperidin-3-yl)-1H-pyrrolo[2,3-d]pyridazin-7(6H)-one], the IC50 is 10 to 1000 nM.

In the case of `N#CN1CCC[C@@H](n2cc(-c3ccc(Oc4ccccc4)cc3)c3c(N)n[nH]c(=O)c32)C1` [Example 20, (R)-3-(4-amino-7-oxo-3-(4-phenoxyphenyl)-6,7-dihydro-1H-pyrrolo[2,3-d]pyridazin-1-yl)piperidine-1-carbonitrile], the IC50 is at most 10 nM.

On to `Nc1n[nH]c(=O)c2c1c(-c1ccc(Oc3ccccc3)cc1)cn2[C@@H]1CCCN(C(=O)CCl)C1` [Example 22, 4-amino-1-[(3R)-1-(2-chloroacetyl)-3-piperidyl]-3-(4-phenoxyphenyl)-6H-pyrrolo[2,3-d]pyridazin-7-one], for which the IC50 lay in the range of 10 to 1000 nM.

As for `Nc1n[nH]c(=O)c2c1c(-c1ccc(Oc3ccccc3)cc1)cn2[C@@H]1CCCN(C(=O)C2CC2)C1` [Example 23, 4-amino-1-[(3R)-1-(cyclopropanecarbonyl)-3-piperidyl]-3-(4-phenoxyphenyl)-6H-pyrrolo[2,3-d]pyridazin-7-one], the 50% inhibitory concentration (IC50) is 10 to 1000 nM.

As for `N#CCC(=O)N1CCC[C@@H](n2cc(-c3ccc(Oc4ccccc4)cc3)c3c(N)n[nH]c(=O)c32)C1` [Example 24, 3-[(3R)-3-[4-amino-7-oxo-3-(4-phenoxyphenyl)-6H-pyrrolo[2,3-d]pyridazin-1-yl]-1-piperidyl]-3-oxo-propanenitrile], the IC50 is 10 to 1000 nM.

Consider `C/C=C/C(=O)N1CCC[C@@H](n2cc(-c3ccc(Oc4ccccc4)cc3)c3c(N)n[nH]c(=O)c32)C1` [Example 25, 4-amino-1-[(3R)-1-[(E)-but-2-enoyl]-3-piperidyl]-3-(4-phenoxyphenyl)-6H-pyrrolo[2,3-d]pyridazin-7-one], for which the IC50 is 10 to 1000 nM.

As to `CN(C)C/C=C/C(=O)N1CCC[C@@H](n2cc(-c3ccc(Oc4ccccc4)cc3)c3c(N)n[nH]c(=O)c32)C1` [Example 26, 4-amino-1-[(3R)-1-[(E)-4-(dimethylamino)but-2-enoyl]-3-piperidyl]-3-(4-phenoxyphenyl)-6H-pyrrolo[2,3-d]pyridazin-7-one], the IC50 was at most 10 nM.

In the case of `CCN(CC)C/C=C/C(=O)N1CCC[C@@H](n2cc(-c3ccc(Oc4ccccc4)cc3)c3c(N)n[nH]c(=O)c32)C1` [Example 27, 4-amino-1-[(3R)-1-[(E)-4-(diethylamino)but-2-enoyl]-3-piperidyl]-3-(4-phenoxyphenyl)-6H-pyrrolo[2,3-d]pyridazin-7-one], the half-maximal inhibitory concentration (IC50) was at most 10 nM.

As to `Nc1n[nH]c(=O)c2c1c(-c1ccc(Oc3ccccc3)cc1)cn2[C@@H]1CCCN(C(=O)/C=C/CNC2CC2)C1` [Example 28, 4-amino-1-[(3R)-1-[(E)-4-(cyclopropylamino)but-2-enoyl]-3-piperidyl]-3-(4-phenoxyphenyl)-6H-pyrrolo[2,3-d]pyridazin-7-one], the IC50 is at most 10 nM.

Consider `CN(C/C=C/C(=O)N1CCC[C@@H](n2cc(-c3ccc(Oc4ccccc4)cc3)c3c(N)n[nH]c(=O)c32)C1)C1CC1` [Example 29, 4-amino-1-[(3R)-1-[(E)-4-(cyclopropyl(methyl)amino)but-2-enoyl]-3-piperidyl]-3-(4-phenoxyphenyl)-6H-pyrrolo[2,3-d]pyridazin-7-one], for which the IC50 was at most 10 nM.

Consider `CCN(C/C=C/C(=O)N1CCC[C@@H](n2cc(-c3ccc(Oc4ccccc4)cc3)c3c(N)n[nH]c(=O)c32)C1)C1CC1` [Example 30, 4-amino-1-[(3R)-1-[(E)-4-[cyclopropyl(ethyl)amino]but-2-enoyl]-3-piperidyl]-3-(4-phenoxyphenyl)-6H-pyrrolo[2,3-d]pyridazin-7-one], for which the IC50 fell in the range of 10 to 1000 nM.

For the compound `CN(C/C=C/C(=O)N1CCC[C@@H](n2cc(-c3ccc(Oc4ccccc4)cc3)c3c(N)n[nH]c(=O)c32)C1)C1CCC1` [Example 31, 4-amino-1-[(3R)-1-[(E)-4-[cyclobutyl(methyl)amino]but-2-enoyl]-3-piperidyl]-3-(4-phenoxyphenyl)-6H-pyrrolo[2,3-d]pyridazin-7-one], the IC50 lay in the range of 10 to 1000 nM.

With `Nc1n[nH]c(=O)c2c1c(-c1ccc(Oc3ccccc3)cc1)cn2[C@@H]1CCCN(C(=O)/C=C/CN2CCC2)C1` [Example 33, 4-amino-1-[(3R)-1-[(E)-4-(azetidin-1-yl)but-2-enoyl]-3-piperidyl]-3-(4-phenoxyphenyl)-6H-pyrrolo[2,3-d]pyridazin-7-one], the concentration for half-maximal inhibition (IC50) is at most 10 nM.

`Nc1n[nH]c(=O)c2c1c(-c1ccc(Oc3ccccc3)cc1)cn2[C@@H]1CCCN(C(=O)/C=C/CN2CCCC2)C1` [Example 34, 4-amino-3-(4-phenoxyphenyl)-1-[(3R)-1-[(E)-4-pyrrolidin-1-ylbut-2-enoyl]-3-piperidyl]-6H-pyrrolo[2,3-d]pyridazin-7-one]: the IC50 was at most 10 nM.

`Nc1n[nH]c(=O)c2c1c(-c1ccc(Oc3ccccc3)cc1)cn2[C@@H]1CCCN(C(=O)/C=C/CN2CCOCC2)C1` [Example 35, 4-amino-1-[(3R)-1-[(E)-4-morpholinobut-2-enoyl]-3-piperidyl]-3-(4-phenoxyphenyl)-6H-pyrrolo[2,3-d]pyridazin-7-one]: the IC50 was at most 10 nM.
